Assay results: patent US6395775B1, “Combating pest insects” (priority 1995, dated 2002)
Entries after “also recorded” stand apart in the source; their conditions may differ.

Legend:
codling moth = settings: cited from earlier work; for previous classification of behavioural role: Hathaway et al. 1974, Witzgall et al. 1996a, El-Sayed et al. 1998
[1] = test system: codling moth, Cydia pomonella; assay: Confusion test in 100 m^2 test areas in a fruit orchard; type: in vivo; settings: for confusing effect (males trapped compared with non-treated control square): four dispensing means in the corners, pheromone trap in the center
Description: In another test a confusion test was carried out in 100 m^2 quadratic test areas in a fruit orchard. […] In the respective center of each square, a pheromone trap loaded with the sex pheromone, E8, E10-dodecadien-1-ol of the codling moth, was placed. The confusing effect was calculated as the number of males trapped in the trap compared with the number trapped in a trap in a non-treated control square, i.e. without any behavior antagonist in the respective corner. […] The sex pheromone of the codling moth, the alcohol, is as already mentioned, in commercial use. The inhibiting results are, however, not always satisfying, (Cardé & Minks, 1995, “Control of moth pests by mating disruption. Successes and constraints”, Ann. Rev. Entomol. 49:559-585) in particular not in fruit orchards having high trees and a high population density. […] Probably, the concentration of pheromone from located dispensing means so low there, that the attracting power of the pheromone dominates its confusing effect. Males circulating in the tree tops may also be caught in lower placed traps which indicates a lacking confusing effect. […] Several of the males caught in pheromone traps in such treated squares can be seen flying some meters above the ground and straight into the trap. They never arrived from the top of the trees.

C. pomonella males = assay: Wind tunnel experiments, male attraction; type: in vivo, Cydia pomonella; settings: codlemone 10 pg/min; E8,Z10-dodecadien-1-ol added at 3% by weight or E8,E10-dodecadienyl acetate at 1% by weight; n=60
Text: Tests were done in a wind tunnel with a flight section of 63 by 90 by 200 cm. Dilutions of synthetic compounds in redistilled ethanol were released from an ultrasound evaporator (Gödde et al. 1999). A motor-driven syringe delivered pheromone solutions in ethanol, through micro-tubing, to a glass capillary tube with a 40 μm tip. A piezo-ceramic disc vibrates the tip of the capillary tube at 100-140 kHz, and the pheromone solution evaporates within a few cm of the tip of the capillary.
The main compound codlemone, E8,E10-dodecadien-1-ol, was applied at a rate of 10 pg/min, E8,Z10-dodecadien-1-ol was added at 3% by weight (FIG. 2), E8,E10-dodecadienyl acetate was added at 1% by weight (FIG. 3).
Test sessions started 1 h after lights off and lasted 3 to 4 h. Two-day-old males were placed individually in glass tubes (15 by 2.5 cm) stoppered with gauze, 15 min prior to testing. Males were released individually and were allowed 2 min to respond. Treatments were tested on 4 days with 15 males/day (n=60).
The sequence of male behaviours elicited by perception of sex pheromone includes activation from rest and taking flight, upwind-oriented flight towards the pheromone source, landing at the pheromone source, and display of courtship behaviors close to the source (walking while wingfanning) (FIGS. 2 and 3). These behaviors are followed by mating, if the pheromone source is a calling female.

[2] = test system: codling moth, Cydia pomonella; assay: Pheromone trap catch test; type: in vivo; settings: for behavioural effect on codling moth in pheromone traps: isomer of the acetate combined with E8,E10-dodecadien-1-ol in traps
Text: Pheromone traps were loaded with the pheromone, E8,E10-dodecadien-1-ol of the codling moth, (FIG. 1A). In other traps the alcohol was combined with the corresponding acetate (FIG. 1B). At a blend of 20% of the acetate the catch decreased to ⅛ (dark column).

| Structure (SMILES) | confusing effect (males trapped compared with non-treated control square) [1] | previous classification of behavioural role (codling moth) | male attraction and close range behaviours at the pheromone source, compared to E8,E10-dodecadien-1-ol alone (C. pomonella males) | behavioural effect on codling moth in pheromone traps [2] | also measured |
| --- | --- | --- | --- | --- | --- |
| C/C=C/C=C/CCCCCCCO [E8,E10-dodecadien-1-ol] | strong confusing effect | – | – | – | attraction of the codling moth by geometric isomers of the alcohol (codling moth; Roelofs et al (1972)): very attractive; observation of males in the tree tops of treated squares ([1]; fruit orchards having high trees and a high population density): males are attracted to the tree tops |
| C/C=C/C=C/CCCCCCCOC(C)=O [E8,E10-dodecadien-1-yl acetate] | strong confusing effect | pheromone antagonists | enhances male attraction and close range behaviours; also recorded: acts as an antagonist when present in high amounts, and as a synergist when present in lower amounts | behaviour antagonist | catch in pheromone traps, decrease relative to E8,E10-dodecadien-1-ol alone ([2]; alcohol combined with the acetate, blend of 20% of the acetate): ⅛ |
| C/C=C\C=C\CCCCCCCO [E8,Z10-dodecadien-1-ol] | – | pheromone antagonists | enhances male attraction and close range behaviours | – | – |
| CC=CC=CCCCCCCCOC(C)=O [EZ] | – | – | – | behaviour antagonists | – |
| C/C=C/C=C\CCCCCCCOC(C)=O [ZE] | – | – | – | behaviour antagonists | – |
| CC=CC=CCCCCCCCOC(C)=O [ZZ] | – | – | – | – | behavioural effect on codling moth in pheromone traps ([2]; listed as zz-isomer): most powerful of the four isomers |
